From patent US20250304973A1, “HIGH-AFFINITY THROMBIN APTAMERS AND METHODS OF USE” (Ayass Bioscience LLC, priority 2024, published 2025)
Entries after “also recorded” stand apart in the source; their conditions may differ.

Legend:
clot-bound thrombin = biological target: T1, clot-bound thrombin (Homo sapiens, UniProt P00734); test: Clot-bound thrombin inhibition; assay type: biochemical; settings: for inhibition of clot-bound thrombin: washed clots from platelet-rich plasma, fluorogenic substrate, 90 min, 37° C.
T1 construct: from tissue; host or cells: washed fibrin clots formed from platelet-rich plasma of healthy donors
Method: 145. For the inhibition study of clot-bound thrombin, blood samples were collected from healthy donors using citrate-treated tubes and centrifuged at 200×g for 15 min at room temperature. The resulting supernatant consisting of platelet-rich plasma (PRP) was collected and aliquots of 500 μL were transferred to microfuge tubes containing 50 μL of 300 mM CaCl2). The mixture was then incubated for 2 h at 37° C. in an incubator without agitation. The formed clots were washed ten times over the course of 16 h at room temperature; each time, 1 mL aliquots of TBS buffer (50 mM Tris-HCl, 100 mM NaCl, pH 7.4) were added to the clots with mixing. Subsequently, the washed clots were transferred to the assay plate (ThermoFisher Scientific, cat #3915, Waltham, MA, USA). […] After a 20 min incubation period with agitation, a thrombin substrate (, Thrombin substrate III, Fluorogenic, Sigma-Aldrich, cat #605211, St. Louis, MO, USA) was added to each sample at a final concentration of 200 μM. Fluorescence measurements were performed using a SYNERGY/HTX multi-mode reader (BioTek, Agilent Technologies, Santa Clara, CA 95051, USA) with the excitation/emission wavelengths set at 360/460 nm. The measurements were recorded for a total duration of 90 min at a temperature of 37° C.

Factor II activity = biological target: T2, Factor II activity (Homo sapiens, UniProt P00734); test: Dose-dependent Factor II activity in whole blood; assay type: biochemical; settings: 1, 2, 3, 4 uM; 2 h room temperature; citrated whole human blood
T2 construct: tissue Rockland Immunochemicals, Inc R214-0050; host or cells: human citrated plasma / whole blood
Method: 138. […] Factor II activity was measured using human plasma immunodepleted of Factor II for the quantitative determination of Factor II activity in citrated plasma based on the prothrombin time (PT) assay, for which an ACLTOP coagulation analyzer manufactured by Instrumentation Laboratory (Bedford, MA, USA) was used. To evaluate the dose-dependent activity of the aptamers in whole blood, human blood samples were collected in citrate-treated tubes. Subsequently, the blood samples were incubated at room temperature for 2 h in both the absence and presence of various concentrations of thrombin aptamers. To measure the Factor II activity using the ACLTOP coagulation analyzer, plasma was separated from the cells by centrifugation at 1500×g for 10 min at 4° C. For the dose-dependent study, concentrations of 1 uM, 2 uM, 3 uM, and 4 uM of AYA1809002 and AYA1809004 were utilized.
156. To facilitate future applications, gaining a comprehensive understanding of the activity of aptamers in whole blood is of paramount importance. To assess their effectiveness, we tested the selected aptamers at various concentrations in whole blood to evaluate their impact on Factor II activity and PT time. Human blood samples were collected in citrate- treated tubes. The blood samples were then incubated at room temperature for 2 h in the absence or presence of varying concentrations of thrombin aptamers. […]

[1] = biological target: T3, human alpha-thrombin protein (Homo sapiens, UniProt P00734); test: ELISA-based binding assay of biotinylated thrombin aptamers to thrombin protein; settings: for Kd: ELISA-based competition assay, 5′ biotin aptamer with or without 100-fold excess non-biotinylated aptamer, estimated, read-out: binding affinity to thrombin, dissociation constant (Kd); for binding to immobilized human thrombin (absorbance at 450 nm): top nine enriched aptamers, biotinylated, FIG. 2A
T3 construct: Native human alpha-thrombin protein; purchased ThermoFisher Scientific RP-43100; host or cells: native protein
Method: 135. Native human alpha-thrombin protein (ThermoFisher Scientific, cat #RP-43100, Waltham, MA, USA) was added to each well of a 96-well plate (Nunc MaxiSorp flat-bottom 96-well plates, ThermoFisher Scientific, cat #44-2404-21, Waltham, MA, USA) at a concentration of 250 nM in Tris-buffered saline with a volume of 100 μL per well. The plate was then incubated at 4° C. for 16 h to allow the wells to become coated with thrombin. After removing the thrombin solution, the wells were washed and blocked using blocking buffer (20 mM Tris, 150 mM NaCl pH 7.5, 2% BSA, 0.1% Tween 20 and 100 μg/mL of sheared salmon sperm DNA) for a 1 h duration. Next, biotinylated aptamers at the indicated concentrations in a volume of 100 μL were added to the wells in an incubation buffer (20 mM Tris, 150 mM NaCl pH 7.5, 0.1% BSA, 0.1% Tween 20 and 100 μg/mL of sheared salmon sperm DNA) and incubated for 1 h at room temperature. In the competition binding assay, unlabeled aptamers were added along with the biotinylated aptamers, with the unlabeled aptamers being present in a 100-fold excess compared to the biotinylated aptamers. Following three washing steps with wash buffer (20 mM Tris, 150 mM NaCl pH 7.5, 0.1% BSA and 0.1% Tween 20), streptavidin-HRP (ThermoFisher Scientific, cat #21130, Waltham, MA, USA) was added at a dilution of 1:5000 in the incubation buffer. The plate was washed again three times to remove any unbound reagents. The bound biotinylated aptamers were then detected using 3,3′,5,5′-Tetramethylbenzidine (TMB) substrate (ThermoFisher Scientific, cat #34021, Waltham, MA, USA) following the manufacturer's instructions.

[2] = test system: human peripheral blood mononuclear cells (hPBMCs); test: Immunogenic reaction on human PBMCs (LEGENDplex Human Inflammation Panel); assay type: cell-based; settings: for immune stimulation (secretion of inflammatory cytokines and chemokines): 1, 5, 10 uM aptamer, 24 and 72 h, versus mock or control aptamer
Method: 147. Human PBMCs were isolated from buffy coats provided by Carter BloodCare(Bedford, TX, USA). Isolation was carried out through density-gradient centrifugation utilizing FicollPaque Plus from GE Healthcare. The isolated human PBMCs suspended in cRPMI media were subjected to stimulation with or without the AYA1809002 and AYA1809004 aptamers and a control aptamer. Various concentrations (1, 5, and 10 uM) of these aptamers were used, along with positive control stimuli such as LPS (200 ng/mL), ODN 1826 (20 uM, Invitrogen), or a combination of LPS (100 ng/mL) and ODN 1826 (10 uM). Following incubation periods of 24 and 72 h, the cell supernatant was collected via centrifugation at 200 g for 3 min. Cytokine levels were evaluated using the LEGENDplex Human Inflammation Panel 1 from BioLegend (cat #740808, San Diego, CA, USA) following the manufacturer's protocol, soluble analytes were acquired using a Navios EX flow cytometer (Beckman Coulter Inc, Pasadena, CA USA), and subsequent analysis was performed using BioLegend's LEGENDPLEX™ system(San Diego, CA, USA).

Row | Substance | inhibition of clot-bound thrombin (clot-bound thrombin) | effect on Factor II activity in whole blood (Factor II activity) | Kd [1] [nM] | binding to immobilized human thrombin (absorbance at 450 nm) [1] | immune stimulation (secretion of inflammatory cytokines and chemokines) [2] | level of clot-bound thrombin inhibition, comparison (clot-bound thrombin; comparison between aptamers and with dabigatran 2 μM) | Safety: immunogenicity and side effects ([2]; Table 3)
1 | AYA1809004: ssDNA thrombin aptamer TCGTCAAGGTACGGTTGGGGGGGTGGGTGTTGACGTTGAA (DNA, backbone not given here) | inhibit clot-bound thrombin in a concentration-dependent manner | dose-dependent decrease in Factor II activity | 13 | strong binding capabilities | do not exhibit immune-stimulating properties | – | –
2 | AYA1809002: ssDNA thrombin aptamer GCGGTGTTGCTGGGGTTGGGAGGTTGGAGGAAGCAATCGC | inhibit clot-bound thrombin in a concentration-dependent manner | dose-dependent decrease in Factor II activity | 10 | strong binding capabilities | do not exhibit immune-stimulating properties; also recorded: did not exhibit immune-stimulating properties | higher level of inhibition compared to AYA1809004 | Low immunogenicity
